Measured values reported in a melting point compilation (Tetko et al.; mined from patent text by program, amines drawn as free bases though some values may be those of a salt).

Compound	melting point
CC(C)(C)C(NC(=O)c1ccc(I)cc1)Nc1c(Nc2cccnc2)c(=O)c1=O (stereo not drawn)	256 to 257 °C
C=CCSC1(C(F)(F)F)C=NC(=O)Nc2ccc(Cl)cc21 (stereo not drawn)	147 to 149 °C
O=S1(=O)c2ccccc2C(CCCl)(CCCl)c2ccccc21	186 to 190 °C
O=CC(=Cc1ccc(O)cc1)C(C=O)=Cc1ccc(O)cc1	244 to 246 °C
CC(C)OC(=O)c1ccc(Nc2cccc(Br)c2)c([N+](=O)[O-])c1	162 to 165 °C
COC(=O)NS(=O)(=O)Nc1c(C(C)C)cccc1C(C)C	152 to 155 °C
CC(=NOc1ccc(F)cc1)c1ccc(C(F)(F)F)cc1NS(=O)(=O)C(F)(F)F	95 to 96 °C
O=C(O)[C@H](Cc1ccc(F)cc1)[C@@H](O)c1ccc(F)cc1 (racemic)	169 to 170 °C
CCCCN(CCCC)C(=O)CCCC1(C(=O)NCCC)c2ccccc2-c2ccccc21	109 to 111 °C
COc1ccc(C2CCN(C(=O)NCc3ccccn3)CC2)cc1OC1CCCC1	104 to 105 °C
CC(=O)n1nc(C)c2ccc(F)cc21	89 to 91 °C
COCCCC#Cc1ccccc1S(N)(=O)=O	59 to 61 °C
CC(C)N1Cc2cc(C(=O)O)ccc2N(CCN2CC=C(c3c[nH]c4cc(F)ccc34)CC2)S1(=O)=O	193 to 194 °C
C#CCn1c(Sc2ccccc2)c(CC)c(=O)[nH]c1=O	132 °C
CCOc1cc(OCC(=O)N2CCN(C(=O)OC(C)(C)C)CC2)cc2c1C(=O)N(COC(=O)c1c(Cl)cccc1Cl)S2(=O)=O	193 to 195 °C
O=C1C2CCCCC2C(=O)N1c1ccc(Br)cc1F (stereo not drawn)	90 to 92 °C
C=CCNC(=O)[C@H]1CN(c2ccc(N3CCOCC3)c(F)c2)C(=O)O1	167 to 169 °C
CCN(C(=O)Cn1c(=O)n(C)c2nc(-c3ccccc3)ncc21)c1ccccc1	240 to 242 °C
COc1ccc(-c2nc3cc(Cl)c(Cl)cc3n2C(=O)OCc2ccccc2)cc1N	150 to 160 °C
Cn1c(=O)[nH]c(=O)c2c1ncn2CC#N	285 to 287 °C
CNC(=O)c1ccn2c(C(=O)N3CCNCC3)c(Cc3cccc(F)c3C)c(-c3ccccc3)c2c1	205 °C
COc1cc2c(cc(C(=O)OCc3ccccc3)n2CCC#N)c(C)c1C	140 °C
C[C@@H]1CN(C(=O)[C@@](C)(O)C(F)(F)F)[C@@H](C)CN1S(=O)(=O)c1ccc(C(=O)N(C)C)cc1	86 to 87 °C
O=C(O)c1cc2cc(F)c(F)cc2o1	270 °C
O=C(O)/C=C/c1ccc(Oc2c(-c3ccccc3)c(CCC(F)(F)F)cc3cc(O)ccc23)cc1	118 to 120 °C

Compound	melting point
O=C1c2cc3ccc4c(c3c(-c3ccc5c(c3)OCO5)c2C(=O)N1CCCO)OCO4	150 to 152 °C
CC(=O)Nc1nc(N2CCc3ccccc3CC2)c([N+](=O)[O-])c(=O)[nH]1	> 200 °C
CCCc1c(OCCCCCOc2ccc(C(C)=O)cc2CCC(=O)O)ccc2c1OCCC2=O	115 to 118 °C
CCCC=C1SC(=S)N(N=c2sc3ccccc3s2)C1=O	236 to 238 °C
O=C(Nc1ccc(Oc2c(Cl)cc(C(F)(F)F)c(Cl)c2Cl)cc1Cl)Nc1nonc1-c1ccccc1	209 °C
O=C1[C@H](CC[C@H](O)c2ccc(F)cc2)[C@@H](c2ccc(O)c(-c3ccccc3)c2)N1c1ccc(F)cc1	113 °C
CCCc1nc2c(N)nc(C)c(C)c2n1CCCC(N)=O	226 to 228 °C
COC(=O)[C@H](Cc1ccc(OCCc2nc(-c3ccccc3)oc2C)cc1)Nc1ccccc1C(=O)c1ccccc1	55 to 60 °C
COc1cccc2c1C(c1ccc(Cl)cc1)NC(=O)C2 (stereo not drawn)	250 to 251 °C
COc1ccc(-c2nc(C(C)=O)oc2-c2ccc(OC)cc2)cc1	139 to 140 °C
O=C(c1ccccn1)c1cnn2c(-c3cccnc3)ccnc12	216 to 218 °C
CCCCOc1cc(CCC(=O)O)ccc1-c1cccc(CN(C)C(=O)c2cccc(OC)c2)c1	80 to 82 °C
COC(=O)COc1ccc2cc3c(c(-c4ccc(OC)cc4)c2c1)CNC3=O	202 to 203 °C
CCN1C(=O)CNCc2cc(OC)c([N+](=O)[O-])cc21	132 to 134 °C
CC(=O)c1ccc2cc(S(N)(=O)=O)sc2c1	154 to 155 °C
C=CCOc1ccc2cc(O)ccc2c1	92 to 93 °C
CCc1nn(-c2ccc(F)cc2)c2cc(C3=CCC(C(=O)O)CC3)ccc12 (stereo not drawn)	214 to 216 °C
Nc1ccc2c(c1)CN(Cc1ccccc1)C2	110 to 115 °C
COc1ccc(C(=O)N2CCC(N3C(=O)Cc4ccccc43)CC2)c(OC)c1	88 to 93 °C
O=C(O)c1cnccc1-c1ccccc1	245 to 246 °C
OCCCc1cncn1Cc1noc2ccccc12	129 to 131 °C
Clc1cccc(-c2cc(OCC3CO3)no2)c1 (stereo not drawn)	86 to 87 °C
CCCCn1c(CC)ccc1Cc1cccc(NC(N)=O)c1	103 to 106 °C
CC(=Cc1ccccc1Br)c1ccc2c(c1)C(C)(C)CCC2(C)C	116 to 117 °C
O=[N+]([O-])c1ccc(-n2nnnc2Cl)cc1	96.5 °C

Compound	melting point
COC=Nc1c(S(=O)(=O)C(F)(F)F)c(-c2ncon2)nn1-c1c(Cl)cc(C(F)(F)F)cc1Cl	158 °C
CS(=O)c1ccc(-n2cnc3ccc(-c4nnc(SCc5cccc(C(F)(F)F)c5)o4)cc32)cc1 (stereo not drawn)	88 to 91 °C
O=C1c2cc(Cl)c(Cl)cc2C(O)N1CCCl (stereo not drawn)	147 to 149 °C
FC(F)(F)c1ccc(/C=C/C=C/[C@H]2CC[C@H](SCc3ccc(Cl)cc3)CC2)cc1	142 to 144 °C
CCCCOc1ccc([N+](=O)[O-])c(CO)c1	47 to 49 °C
N#CCC(=O)c1cccc(Oc2ccccc2)c1	95 to 96 °C
O=C1C[C@@H](C(=O)O)N(C(=O)OCc2ccccc2)C1	99 to 101 °C
CC(=O)c1cccc(Cl)c1C(=O)O	128 to 129 °C
CCn1nc(C(C)C)c2c1C(=NC#N)NCC(c1ccccc1)=N2	222 °C
CS(=O)(=O)c1ccc(-c2n[nH]c(C(F)(F)F)c2-c2ccc(F)cc2)cc1	219 to 220 °C
CCCn1c(N)cc(=O)n(CC2CCCCC2)c1=O	121 to 122 °C
CC(=C1SC(=O)NC1=O)c1ccc(OCCOc2c(-c3ccc(F)cc3)n(C)c3cc(F)ccc3c2=O)cc1	276 to 278 °C
CCc1n[nH]c(=O)n1CCOc1ccccc1	136 to 139 °C
COc1ccc(-c2cn(Cc3ccccc3)c(=O)c3ccccc23)cc1OC	174 to 176 °C
COc1ccc(C(=O)NCc2ccc(C(=O)O)cc2)cc1C12CC3CC(CC(C3)C1)C2	286 to 287 °C
COc1cc(-c2cccc(Cl)c2)c2cc(C(O)c3cncn3C)ccc2n1 (stereo not drawn)	205 °C
COC(=O)CCCON1CCNC1=Nc1c(Cl)cccc1Cl	95 to 96 °C
c1cc2c3c(c1)nc(SCc1ccncc1)n3CCC2	105 to 107 °C
CCOC(=O)C1=CC2(CCC1S(=O)(=O)Nc1ccc(F)cc1Cl)CCC1(COCOO1)CO2 (stereo not drawn)	156 to 157 °C
COc1cc(NC(=O)OCc2ccccc2)c(Cl)cc1-c1n[nH]c(=O)o1	214 °C
CCOC(=O)c1c(-c2ccccc2)n(C)n(-c2ccc(C#N)cc2)c1=O	218 to 220 °C
CCOc1cc(-c2cc(C(F)(F)F)n3ncc(-c4ccnc(C)c4)c3n2)ccc1C(F)(F)F	226 °C
N#Cc1cccc(N2Cc3ccccc3CN(C3CCNCC3)C2=O)c1	116 °C
Cc1cn(-c2cc(Br)c(N)c(C(F)(F)F)c2)c(C)n1	149 °C
CN1CCN(c2n[nH]c(-c3ccc(Cl)cc3)c2-c2ccncc2)CC1	262 to 264 °C

Compound	melting point
CCN1CCC(c2n[nH]c3cc(F)ccc23)CC1	175 to 178 °C
CC1(C)OC(=S)N(c2cc(C#N)ccc2F)c2ccccc21	250 to 251 °C
CN(C)C(=O)C1(NS(=O)(=O)c2ccc3c(Cl)cnc(NC(=N)N)c3c2)CCCC1	264 to 268 °C
COC(=O)c1ccc(-c2ccc(Cl)cc2)c(-c2ccc(Cl)cc2Cl)c1	136 °C
O=C(C1CC1)C(C(O)C(Cl)(Cl)Cl)n1cncn1 (stereo not drawn)	173 to 175 °C
Nc1cnc(Oc2cnc3ccccc3c2)c(Cl)c1	156 to 159 °C
Cn1c(=O)c2c(I)cccc2n2cnc(-c3noc(C4CC4)n3)c12	217 to 220 °C
Cn1c(-c2ccc(-c3cccnc3)cc2)cnc1[C@H](Cc1ccccn1)N(C=O)c1cc2cc(Cl)ccc2o1	158 to 160 °C
COc1cccc(Cn2cc3c(-c4cccc(C(=O)NCCO)c4)cccc3n2)c1	176 to 177 °C
Cc1ncc2c(n1)-c1ccc(Cl)cc1C(c1ccccc1F)=NC2	104 to 107 °C
O=C(Nc1ccc(C2(O)CCN(C(=O)OCc3ccccc3)CC2)cc1)OCc1ccccc1	156 to 158 °C
CCOC(=O)c1cc(Cl)c2[nH]ncc2n1	276 to 279 °C
CC(C)(C)CCNC(=O)c1ccc(C#N)cc1	154 to 157 °C
CN1CCN(c2ccc(/C=C/c3ccccc3F)cc2)CC1	142 to 144 °C
CCOc1cc(CN2CCN(c3ccc(C(=O)NC)cc3)CC2)cc2c1OC(C)C(=O)N2 (stereo not drawn)	228 to 233 °C
CCCn1c(=O)c2nc(C(C)Cc3ccc(OCC(=O)NCCN)cc3)[nH]c2n(CCC)c1=O (stereo not drawn)	143 to 144 °C
Cc1cc(-c2cc(C(F)F)n3ncc(C(=O)Nc4cccc(S(=O)(=O)NC5CC5)c4)c3n2)ccc1C(F)(F)F	199 °C
Cc1c(Cl)cc(N2CCN(CCCCN3C(=O)c4ccccc4S3(=O)=O)CC2)c2c1OCCO2	136 to 137 °C
c1cn(Cc2nc(-c3ccc4c(c3)OCO4)c3cc4c(cc3n2)OCO4)cn1	182 to 185 °C
O=C(NO)c1ccc(CNC(=O)c2[nH]c(-c3ccccc3)cc2-c2ccc(F)cc2)cc1	215 to 216 °C
COc1cc(C(C)C)c2c(c1)S(=O)(=O)N(COC(=O)c1c(C)cc(C)cc1C)C2=O	137 to 138 °C
CCOC(=O)c1ccc(C=C(C)c2ccc3c(c2)OCCC3(C)C)cc1	48 to 50 °C
CCCc1nc(C(C)(C)O)c(C(=O)O)n1Cc1ccc(-c2ccccc2C(=O)OC(C)(C)C)cc1	155 to 157 °C
